Results taken from patent US6444615B1, “Herbicidal imidazolidinetrione and thioxo-imidazolidinediones” (Dow AgroSciences LLC, priority 2000, dated 2002).

Experiments:
Assay type in all cases: in vivo
Details in all cases: 1200 g/ha, scale of 0-100, 0 no activity, 100 total control, about two or four weeks after application
[1] = tested on: Smartweed, (pale) (Polygonum lapathifolium); assay: Herbicidal post-emergence test, Smartweed (pale)
Method: (§1) Listed below, a typical planting design for the test, consisting of four monocot weeds, four dicot weeds and one sedge weed. [table] For each compound, evaluation tests were carried out according to the following procedures: For preemergence tests, immediately after planting, the test compound was sprayed directly onto the soil surface. The flats or pots were placed in the greenhouse and then watered. For postemergence tests, seeds were allowed to germinate and grow for 10 to 21 days before application. The test plants were selected for uniformity, size and stage of development. The test plants were then treated with the test compound, returned to the greenhouse and watered. Untreated plants were used as a comparison. The compound to be evaluated was dissolved in an appropriate solvent, usually acetone, or a formulation of the evaluated compounds as described above, was added to the water, and sprayed over the flats or pots using a carrier volume equivalent to 187 or 468 liters per hectare to give a rate of application in grams per hectare (g/ha). About two or four weeks after application of the test compounds, the state of the plant was observed. Each species was evaluated on a scale of 0-100 in which 0 equals no activity and 100 equals total control.

[2] = tested on: Barnyardgrass (Echinochloa crusgalli); assay: Herbicidal post-emergence test, Barnyardgrass
Method: as §1

[3] = tested on: Perennial Ryegrass (Lolium perenne); assay: Herbicidal pre-emergence test, Perennial Ryegrass
Method: as §1

[4] = tested on: Velvetleaf (Abutilon theophrasti); assay: Herbicidal post-emergence test, Velvetleaf
Method: as §1

[5] = tested on: Hairy Beggarticks (Bidens pilosa); assay: Herbicidal pre-emergence test, Hairy Beggarticks
Method: as §1

[6] = tested on: Velvetleaf (Abutilon theophrasti); assay: Herbicidal pre-emergence test, Velvetleaf
Method: as §1

[7] = tested on: Hairy Beggarticks (Bidens pilosa); assay: Herbicidal post-emergence test, Hairy Beggarticks
Method: as §1

[8] = tested on: Crabgrass (large) (Digitaria sanguinalis); assay: Herbicidal post-emergence test, Crabgrass (large)
Method: as §1

[9] = tested on: Nightshade, (black) (Solanum nigrum); assay: Herbicidal post-emergence test, Nightshade (black)
Method: as §1

[10] = tested on: Smartweed, (pale) (Polygonum lapathifolium); assay: Herbicidal pre-emergence test, Smartweed (pale)
Method: as §1

[11] = tested on: Foxtail, (green) (Setaria viridis); assay: Herbicidal pre-emergence test, Foxtail (green)
Method: as §1

[12] = tested on: Foxtail, (green) (Setaria viridis); assay: Herbicidal post-emergence test, Foxtail (green)
Method: as §1

[13] = tested on: Perennial Ryegrass (Lolium perenne); assay: Herbicidal post-emergence test, Perennial Ryegrass
Method: as §1

[14] = tested on: Nutsedge, (yellow) (Cyperus esculentus); assay: Herbicidal post-emergence test, Nutsedge (yellow)
Method: as §1

[15] = tested on: Nightshade, (black) (Solanum nigrum); assay: Herbicidal pre-emergence test, Nightshade (black)
Method: as §1

[16] = tested on: Nutsedge, (yellow) (Cyperus esculentus); assay: Herbicidal pre-emergence test, Nutsedge (yellow)
Method: as §1

[17] = tested on: Barnyardgrass (Echinochloa crusgalli); assay: Herbicidal pre-emergence test, Barnyardgrass
Method: as §1

[18] = tested on: Crabgrass (large) (Digitaria sanguinalis); assay: Herbicidal pre-emergence test, Crabgrass (large)
Method: as §1

| Structure (SMILES) | Herbicidal Activity SMT (post-emergence) [1] | Herbicidal Activity BYG (post-emergence) [2] | Herbicidal Activity RYE (pre-emergence) [3] | Herbicidal Activity VEL (post-emergence) [4] | Herbicidal Activity BID (pre-emergence) [5] | Herbicidal Activity VEL (pre-emergence) [6] | Herbicidal Activity BID (post-emergence) [7] | Herbicidal Activity CRB (post-emergence) [8] | Herbicidal Activity NS (post-emergence) [9] | Herbicidal Activity SMT (pre-emergence) [10] | Herbicidal Activity FOX (pre-emergence) [11] | Herbicidal Activity FOX (post-emergence) [12] | Herbicidal Activity RYE (post-emergence) [13] | Herbicidal Activity NUT (post-emergence) [14] | Herbicidal Activity NS (pre-emergence) [15] | Herbicidal Activity NUT (pre-emergence) [16] | Herbicidal Activity BYG (pre-emergence) [17] | Herbicidal Activity CRB (pre-emergence) [18] |
| --- | --- | --- | --- | --- | --- | --- | --- | --- | --- | --- | --- | --- | --- | --- | --- | --- | --- | --- |
| CN1C(=O)C(=O)N(c2cc(OC3CCCC3)c(Cl)cc2F)C1=O [Compound 3] | 85 | 30 | 0/0 | 100 | 0 | 0 | 80 | 0/0 | 80 | 0 | 0 | 60 | 0/0 | 0/0 | 0 | 0/0 | 0 | 0/0 |
| CCN1C(=O)C(=O)N(c2cc(OC3CCCC3)c(Cl)cc2F)C1=O [Compound 4] | 90 | 60 | 0/0 | 100 | 0 | 0 | 85 | 0/0 | 85 | 0 | 0 | 60 | 0/0 | 0/0 | 0 | 0/0 | 0 | 0/0 |
| O=C1C(=O)N(c2cc(OC3CCCC3)c(Cl)cc2F)C(=O)N1CCCl [Compound 6] | 0 | 40/40 | 0/0 | 0/0 | 30 | 0/0 | 0 | 0 | 80 | 30 | 30 | 0 | 0/0 | 0/0 | 30 | 0/0 | 40/40 | 30 |
| CCCN1C(=O)C(=O)N(c2cc(OC3CCCC3)c(Cl)cc2F)C1=O [Compound 8] | 100 | 60 | 0/0 | 100/100 | 100 | 100/100 | 95 | 40 | 100/100 | 20 | 0 | 95 | 0/0 | 0/0 | 100/100 | 0/0 | 0 | 100 |
| CCCCN1C(=O)C(=O)N(c2cc(OC3CCCC3)c(Cl)cc2F)C1=O [Compound 10] | 30 | 40 | 0 | 100 | 0 | 0 | 60 | 20 | 100 | 0 | 0 | 80 | 30 | 30 | 0 | 0 | 0 | 0 |
| C#CCOc1cc(N2C(=O)C(=O)N(C)C2=O)c(F)cc1Cl [Compound 12] | 100 | 40 | 0/0 | 100 | 40 | 20 | 95 | 30 | 100 | 0 | 0 | 40 | 0/0 | 0/0 | 50 | 0/0 | 0 | 0 |
| C#CCOc1cc(N2C(=O)C(=O)N(CCC)C2=O)c(F)cc1Cl [Compound 13] | 95 | 80 | 60 | 100/100 | 100 | 100/100 | 85 | 30 | 100/100 | 100 | 100 | 60 | 30 | 30 | 100/100 | 0 | 95 | 100 |
